Results on 15 compounds are retold here after patent US20210317145A1, “Boronic Acid Derivatives” (Merck Patent GmbH, priority 2018, published 2021).

As a reminder, the IC50 is the concentration needed to halve the response being measured. Lower therefore signals greater potency in that assay.

Experiment [1] addresses LMP7 (purified human immuno proteasome) (Homo sapiens, UniProt P20618+P28062). In words: Determination of LMP7 activity (fluorescence intensity assay, Suc-LLVY-AMC). The experiment is classed as biochemical. The settings on record: for Selectivity LMP7 vs Beta5: LMP7 versus Beta5, incubation for 20 minutes; for IC50: purified human immuno proteasome 0.25 nM, incubation for 20 minutes at 25° C., Suc-LLVY-AMC 40 μM. The method, then: Determination of LMP7 Activity:
Measurement of LMP7 inhibition is performed in 384 well format based on fluorescence intensity assay.
(§1) Purified human immuno proteasome (0.25 nM) and serial diluted compounds in DMSO (range of concentrations from 30 μM to […]) or controls are incubated for 20 minutes or 120 minutes (long incubation) at 25° C. in assay buffer containing 50 mM Tris pH 7.4, 0.03% SDS, 1 mM EDTA and 1% DMSO. The reaction is initiated by the addition of the fluorogenic peptide substrate, Suc-LLVY-AMC (Bachem 1-1395), at a concentration of 40 μM. After 60 minutes of incubation at 37° C., fluorescence intensity is measured at λex=350 nm and λem=450 nm with a fluorescence reader (Perkin Elmer Envision reader or equivalent).
(§2) Unless indicated otherwise the results are obtained after incubation for 20 minutes.

Experiment [2] concerns the target Beta5 (purified human constitutive proteasome) (Homo sapiens, UniProt P20618+P28074). Kind of experiment: Determination of Beta5 activity (fluorescence intensity assay, Suc-LLVY-AMC). The settings on record: purified human constitutive proteasome 1.25 nM, incubation for 20 minutes at 25° C., Suc-LLVY-AMC 40 μM. The experiment is classed as biochemical. Here is the method: Determination of Beta5 Activity:
Measurement of Beta5 inhibition is performed in 384 well format based on fluorescence intensity assay.
as §1, with “constitutive” for “immuno”, “(1.25” for “(0.25”
as §2

Experiment [3] deals with LMP7 subunit of the immunoproteasome (Homo sapiens, UniProt P20618+P28062). The settings on record: Singh et al, Br. J. Hematology 152(2): 155-163; cited from earlier work.

For `O=C(N[C@@H](Cc1coc2ccccc12)B(O)O)[C@@H]1CCCO1` [Compound 26, [(1R)-2-(benzofuran-3-yl)-1-[[(2S)-tetrahydro-furan-2-carbonyl]amino]-ethyl]boronic acid], the “Selectivity LMP7 vs Beta5” value in experiment [1] is reported as “++ (100 ≤ Selectivity < 300)”. The 50% inhibitory concentration (IC50) in experiment [1] was 50 to 500 nM; in experiment [2] it was 5000 to 30000 nM.

In the case of `O=C(N[C@@H](Cc1coc2ccccc12)B(O)O)[C@H]1CCCO1` [Compound 27, [(1R)-2-(benzofuran-3-yl)-1-[[(2R)-tetrahydro-furan-2-carbonyl]amino]-ethyl]boronic acid], in experiment [1], the “Selectivity LMP7 vs Beta5” value is recorded as “++ (100 ≤ Selectivity < 300)” and the concentration for half-maximal inhibition (IC50) was at most 50 nM. In addition, the IC50 in experiment [2] is 500 to 5000 nM.

On to `COCC(=O)N[C@@H](Cc1coc2ccccc12)B(O)O` [Compound 28, [(1R)-2-(benzofuran-3-yl)-1-[(2-methoxy-acetyl)amino]ethyl]-boronic acid], for which, in experiment [1], the “Selectivity LMP7 vs Beta5” value is listed as “+ (Selectivity <100)” and the IC50 is at most 50 nM. Besides, the IC50 in experiment [2] lay within 500 to 5000 nM.

Take `Cc1cccc2c(C[C@H](NC(=O)[C@H]3CCCO3)B(O)O)coc12` [Compound 29, [(1R)-2-(7-methylbenzo-furan-3-yl)-1-[[(2R)-tetrahydrofuran-2-carbonyl]amino]ethyl]-boronic acid]: the “Selectivity LMP7 vs Beta5” value in experiment [1] was “++ (100 ≤ Selectivity < 300)”. For the same compound, the IC50 in experiment [1] is at most 50 nM; in experiment [2], 500 to 5000 nM.

With `Cc1cccc2c(C[C@@H](NC(=O)[C@H]3CCCO3)B(O)O)coc12` [Compound 30], in experiment [1], the “Selectivity LMP7 vs Beta5” value is given as “++ (100 ≤ Selectivity < 300)” and the IC50 was in the range of 50 to 500 nM. This compound also displayed an IC50 in experiment [2] of 5000 to 30000 nM.

In the case of `COCCC(=O)N[C@@H](Cc1coc2ccccc12)B(O)O` [Compound 31, [(1R)-2-(benzofuran-3-yl)-1-(3-methoxy-propanoylamino)ethyl]-boronic acid], in experiment [1], the “Selectivity LMP7 vs Beta5” value is reported as “++ (100 ≤ Selectivity < 300)” and the IC50 is at most 50 nM. The compound further showed an IC50 in experiment [2] of 50 to 500 nM.

With `O=C(N[C@@H](Cc1coc2ccccc12)B(O)O)[C@H]1CCOC1` [Compound 32, [(1R)-2-(benzofuran-3-yl)-1-[[(3S)-tetrahydro-furan-3-carbonyl]-amino]ethyl]boronic acid], in experiment [1], the “Selectivity LMP7 vs Beta5” value was “++ (100 ≤ Selectivity < 300)” and the IC50 is at most 50 nM. This compound returned an IC50 in experiment [2] of 5000 to 30000 nM.

For the compound `O=C(N[C@@H](Cc1coc2ccccc12)B(O)O)[C@@H]1CCOC1` [Compound 33, [(1R)-2-(benzofuran-3-yl)-1-[[(3R)-tetrahydro-furan-3-carbonyl]-amino]ethyl]boronic acid], in experiment [1], the “Selectivity LMP7 vs Beta5” value was “++++ (Selectivity ≥ 500)” and the IC50 is at most 50 nM. In experiment [2], this compound returned an IC50 of 500 to 5000 nM.

For `O=C(N[C@@H](Cc1coc2ccccc12)B(O)O)C1COc2ccccc21` (stereo partly drawn) [Compound 35, [(1R)-2-(benzofuran-3-yl)-1-(2,3-dihydrobenzo-furan-3-carbonylamino)-ethyl]boronic acid], in experiment [1], the “Selectivity LMP7 vs Beta5” value is listed as “++++ (Selectivity ≥ 500)”. Besides, the figures for the IC50 in experiment [1] and in experiment [2] were at most 50 nM and 500 to 5000 nM, respectively.

Consider `O=C(N[C@@H](Cc1coc2ccccc12)B(O)O)C1OCCc2ccccc21` (stereo partly drawn) [Compound 38, [(1R)-2-(benzofuran-3-yl)-1-(isochromane-1-carbonylamino)ethyl]-boronic acid], for which, in experiment [1], the “Selectivity LMP7 vs Beta5” value was “+++ (300 ≤ Selectivity < 500)” and the IC50 is at most 50 nM. The same compound had an IC50 in experiment [2] of 500 to 5000 nM.

Take `O=C(N[C@@H](Cc1coc2ccccc12)B(O)O)[C@@H]1COCCO1` [Compound 39, [(1R)-2-(benzofuran-3-yl)-1-[[(2S)-1,4-dioxane-2-carbonyl]-amino]ethyl]boronic acid]: the “Selectivity LMP7 vs Beta5” value in experiment [1] is on record as “++ (100 ≤ Selectivity < 300)”. The results for the IC50 in experiment [1] and in experiment [2] were at most 50 nM and 500 to 5000 nM, respectively.

As for `O=C(N[C@@H](Cc1coc2ccccc12)B(O)O)[C@H]1COCCO1` [Compound 40, [(1R)-2-(benzofuran-3-yl)-1-[[(2R)-1,4-dioxane-2-carbonyl]-amino]ethyl]boronic acid], in experiment [1], the “Selectivity LMP7 vs Beta5” value is “+ (Selectivity <100)” and the IC50 is at most 50 nM. Also, in experiment [2], the IC50 lay within 500 to 5000 nM.

With `O=C(N[C@@H](C[C@@H]1COc2ccccc21)B(O)O)[C@@H]1CCOC1` [Compound 41, [(1R)-2-[(3S)-2,3-dihydrobenzofuran-3-yl]-1-[[(3R)-tetra-hydrofuran-3-carbonyl]-amino]ethyl]boronic acid], in experiment [1], the “Selectivity LMP7 vs Beta5” value is reported as “++++ (Selectivity ≥ 500)” and the IC50 lay within 50 to 500 nM. The compound also returned an IC50 in experiment [2] of 5000 to 30000 nM.

On to `Cc1cccc2c1OC[C@H]2C[C@H](NC(=O)[C@@H]1CCOC1)B(O)O` [Compound 42, [(1R)-2-[(3S)-7-methyl-2,3-dihydrobenzofuran-3-yl]-1-[[(3R)-tetra-hydrofuran-3-carbonyl]-amino]ethyl]boronic acid], for which the “Selectivity LMP7 vs Beta5” value in experiment [1] is on record as “+++ (300 ≤ Selectivity < 500)”. For the same compound, the IC50 in experiment [1] was 50 to 500 nM; in experiment [2], 5000 to 30000 nM.

Consider `CC1=C(C(=O)N[C@H](C)C(=O)N[C@@H](Cc2c[nH]c3ccccc23)C(=O)N[C@@H](Cc2ccccc2)C(=O)[C@@]2(C)CO2)Cc2ccccc21` [PR-924], for which the “selective inhibitor of the LMP7 subunit of the immunoproteasome” value in experiment [3] is reported as 100 fold.
